From patent US12077503B2, “Substituted cyclic amides and their use as herbicides” (FMC CORPORATION, priority 2015, dated 2024)

How the values were obtained:
Assay type in all cases: in vivo
corn (Zea mays) [1] = test: Test G Pre-Emergence Protocol; conditions: Zea mays, pre-emergence, 312 h, evaluated after 13 days; for plant injury at 15.625 g/ha: 15.625 g ai/ha; for plant injury at 15.625 g/ha / plant injury at 250 g/ha: read-out: Corn damage rating (100=total damage to plant; 0=no damage to plant); for plant injury at 62.5 g/ha: 62.5 g ai/ha, 100=total damage to plant, 0=no damage to plant, read-out: plant damage rating, Corn; for plant injury at 250 g/ha: 250 g ai/ha
Method in brief: (§1)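 Herbicidal effect was rated 13 days post-application on a scale where 100 equals total damage. Spraying took place the day after sowing, using 15.625, 62.5 or 250 g/ha of compound in a 50:50 acetone/water solution with 0.5% Tween 20.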

[2] = tested on: giant foxtail (Setaria faberi); test: Test G Pre-Emergence Protocol; conditions: Setaria faberi, pre-emergence, 312 h, evaluated after 13 days; for pest or weed control at 15.625 g/ha: 15.625 g ai/ha; for pest or weed control at 15.625 g/ha / pest or weed control at 250 g/ha: read-out: Foxtail, Giant damage rating (100=total damage to plant; 0=no damage to plant); for pest or weed control at 62.5 g/ha: 62.5 g ai/ha, 100=total damage to plant, 0=no damage to plant, read-out: plant damage rating, Foxtail, Giant; for pest or weed control at 250 g/ha: 250 g ai/ha
Method in brief: as §1

[3] = tested on: redroot pigweed (Amaranthus retroflexus); test: Test G Pre-Emergence Protocol; conditions: Amaranthus retroflexus, pre-emergence, 312 h, evaluated after 13 days; for pest or weed control at 15.625 g/ha: 15.625 g ai/ha; for pest or weed control at 15.625 g/ha / pest or weed control at 250 g/ha: read-out: Pigweed, Redroot damage rating (100=total damage to plant; 0=no damage to plant); for pest or weed control at 62.5 g/ha: 62.5 g ai/ha, 100=total damage to plant, 0=no damage to plant, read-out: plant damage rating, Pigweed, Redroot; for pest or weed control at 250 g/ha: 250 g ai/ha
Method in brief: as §1

[4] = tested on: ivy-leaved morning glory (Ipomoea hederacea); test: Test G Pre-Emergence Protocol; conditions: Ipomoea, pre-emergence, 312 h, evaluated after 13 days; for pest or weed control at 15.625 g/ha: 15.625 g ai/ha, read-out: Morning-glory, Ivy-leaved damage rating (100=total damage to plant; 0=no damage to plant); for pest or weed control at 62.5 g/ha: 62.5 g ai/ha, 100=total damage to plant, 0=no damage to plant, read-out: plant damage rating, Morningglory, Ivy-leaved; for pest or weed control at 250 g/ha: 250 g ai/ha, read-out: Morningglory, Ivy-leaved damage rating (100=total damage to plant; 0=no damage to plant)
Method in brief: as §1

[5] = tested on: velvetleaf (Abutilon theophrasti); test: Test G Pre-Emergence Protocol; conditions: Abutilon theophrasti, pre-emergence, 312 h, evaluated after 13 days; for pest or weed control at 15.625 g/ha: 15.625 g ai/ha; for pest or weed control at 15.625 g/ha / pest or weed control at 250 g/ha: read-out: Velvetleaf damage rating (100=total damage to plant; 0=no damage to plant); for pest or weed control at 62.5 g/ha: 62.5 g ai/ha, 100=total damage to plant, 0=no damage to plant, read-out: plant damage rating, Velvetleaf; for pest or weed control at 250 g/ha: 250 g ai/ha
Method in brief: as §1

[6] = tested on: barnyardgrass (Echinochloa crus-galli); test: Test G Pre-Emergence Protocol; conditions: Echinochloa crus-galli, pre-emergence, 312 h, evaluated after 13 days; for pest or weed control at 15.625 g/ha: 15.625 g ai/ha, read-out: Barnyard grass damage rating (100=total damage to plant; 0=no damage to plant); for pest or weed control at 62.5 g/ha: 62.5 g ai/ha, 100=total damage to plant, 0=no damage to plant, read-out: plant damage rating, Barnyardgrass; for pest or weed control at 250 g/ha: 250 g ai/ha, read-out: Barnyardgrass damage rating (100=total damage to plant; 0=no damage to plant)
Method in brief: as §1

corn (Zea mays) [7] = test: Test G Post-Emergence Protocol; conditions: Zea mays, post-emergence, 312 h; for plant injury at 15.625 g/ha: 15.625 g ai/ha, evaluated after 13 days (100=total damage to plant; 0=no damage to plant), read-out: Corn damage rating; for plant injury at 62.5 g/ha: 62.5 g ai/ha, read-out: Corn damage rating (100=total damage to plant; 0=no damage to plant); for plant injury at 62.5 g/ha / plant injury at 250 g/ha: evaluated after 13 days; for plant injury at 250 g/ha: 250 g ai/ha, read-out: damage to plant, Corn (100=total damage to plant; 0=no damage to plant)
Method in brief: (§2)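 Eight days post-sowing, plants received a spray of test compound (acetone/water 50:50, 0.5% Tween 20) at 15.625, 62.5 or 250 g/ha. Glasshouse regime thereafter: 24/16 °C, 14 h light, 65% humidity. Assessment after 13 days on a 0–100 damage scale.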

[8] = tested on: giant foxtail (Setaria faberi); test: Test G Post-Emergence Protocol; conditions: Setaria faberi, post-emergence, 312 h; for pest or weed control at 15.625 g/ha: 15.625 g ai/ha, evaluated after 13 days (100=total damage to plant; 0=no damage to plant), read-out: Foxtail, Giant damage rating; for pest or weed control at 62.5 g/ha: 62.5 g ai/ha, read-out: Foxtail, Giant damage rating (100=total damage to plant; 0=no damage to plant); for pest or weed control at 62.5 g/ha / pest or weed control at 250 g/ha: evaluated after 13 days; for pest or weed control at 250 g/ha: 250 g ai/ha, read-out: damage to plant, Foxtail, Giant (100=total damage to plant; 0=no damage to plant)
Method in brief: as §2

[9] = tested on: redroot pigweed (Amaranthus retroflexus); test: Test G Post-Emergence Protocol; conditions: Amaranthus retroflexus, post-emergence, 312 h; for pest or weed control at 15.625 g/ha: 15.625 g ai/ha, evaluated after 13 days (100=total damage to plant; 0=no damage to plant), read-out: Pigweed, Redroot damage rating; for pest or weed control at 62.5 g/ha: 62.5 g ai/ha, read-out: Pigweed, Redroot damage rating (100=total damage to plant; 0=no damage to plant); for pest or weed control at 62.5 g/ha / pest or weed control at 250 g/ha: evaluated after 13 days; for pest or weed control at 250 g/ha: 250 g ai/ha, read-out: damage to plant, Pigweed, Redroot (100=total damage to plant; 0=no damage to plant)
Method in brief: as §2

[10] = tested on: ivy-leaved morning glory (Ipomoea hederacea); test: Test G Post-Emergence Protocol; conditions: Ipomoea, post-emergence, 312 h; for pest or weed control at 15.625 g/ha: 15.625 g ai/ha, evaluated after 13 days (100=total damage to plant; 0=no damage to plant), read-out: Morningglory, Ivy-leaved damage rating; for pest or weed control at 62.5 g/ha: 62.5 g ai/ha, read-out: Morningglory, Ivy-leaved damage rating (100=total damage to plant; 0=no damage to plant); for pest or weed control at 62.5 g/ha / pest or weed control at 250 g/ha: evaluated after 13 days; for pest or weed control at 250 g/ha: 250 g ai/ha, read-out: damage to plant, Morningglory, Ivy-leaved (100=total damage to plant; 0=no damage to plant)
Method in brief: as §2

[11] = tested on: velvetleaf (Abutilon theophrasti); test: Test G Post-Emergence Protocol; conditions: Abutilon theophrasti, post-emergence, 312 h; for pest or weed control at 15.625 g/ha: 15.625 g ai/ha, evaluated after 13 days (100=total damage to plant; 0=no damage to plant), read-out: Velvetleaf damage rating; for pest or weed control at 62.5 g/ha: 62.5 g ai/ha, read-out: Velvetleaf damage rating (100=total damage to plant; 0=no damage to plant); for pest or weed control at 62.5 g/ha / pest or weed control at 250 g/ha: evaluated after 13 days; for pest or weed control at 250 g/ha: 250 g ai/ha, read-out: damage to plant, Velvetleaf (100=total damage to plant; 0=no damage to plant)
Method in brief: as §2

[12] = tested on: barnyardgrass (Echinochloa crus-galli); test: Test G Post-Emergence Protocol; conditions: Echinochloa crus-galli, post-emergence, 312 h; for pest or weed control at 15.625 g/ha: 15.625 g ai/ha, evaluated after 13 days (100=total damage to plant; 0=no damage to plant), read-out: Barnyardgrass damage rating; for pest or weed control at 62.5 g/ha: 62.5 g ai/ha, read-out: Barnyardgrass damage rating (100=total damage to plant; 0=no damage to plant); for pest or weed control at 62.5 g/ha / pest or weed control at 250 g/ha: evaluated after 13 days; for pest or weed control at 250 g/ha: 250 g ai/ha, read-out: damage to plant, Barnyardgrass (100=total damage to plant; 0=no damage to plant)
Method in brief: as §2

Compound	plant injury at 15.625 g/ha (corn (Zea mays) [1])	plant injury at 62.5 g/ha (corn (Zea mays) [1])	plant injury at 250 g/ha (corn (Zea mays) [1])	pest or weed control at 15.625 g/ha [2]	pest or weed control at 62.5 g/ha [2]	pest or weed control at 250 g/ha [2]	pest or weed control at 15.625 g/ha [3]	pest or weed control at 62.5 g/ha [3]	pest or weed control at 250 g/ha [3]	pest or weed control at 15.625 g/ha [4]	pest or weed control at 62.5 g/ha [4]	pest or weed control at 250 g/ha [4]	pest or weed control at 15.625 g/ha [5]	pest or weed control at 62.5 g/ha [5]	pest or weed control at 250 g/ha [5]	pest or weed control at 15.625 g/ha [6]	pest or weed control at 62.5 g/ha [6]	pest or weed control at 250 g/ha [6]	plant injury at 15.625 g/ha (corn (Zea mays) [7])	plant injury at 62.5 g/ha (corn (Zea mays) [7])	further results
CN1C[C@H](c2ccc(C(F)(F)F)cc2)[C@@H](C(=O)Nc2ncc(Cl)cc2Cl)C1=O (racemic) [Compound 1435]	0%	0%	0%	0%	0%	0%	0%	0%	0%	0%	0%	0%	0%	0%	0%	0%	0%	0%	0%	0%	plant injury at 250 g/ha (corn (Zea mays) [7]): 10%; pest or weed control at 15.625 g/ha [8]: 0%; pest or weed control at 62.5 g/ha [8]: 0%; pest or weed control at 250 g/ha [8]: 0%; pest or weed control at 15.625 g/ha [9]: 0%; pest or weed control at 62.5 g/ha [9]: 30%; pest or weed control at 250 g/ha [9]: 30%; pest or weed control at 15.625 g/ha [10]: 0%; pest or weed control at 62.5 g/ha [10]: 0%; pest or weed control at 250 g/ha [10]: 0%; pest or weed control at 15.625 g/ha [11]: 0%; pest or weed control at 62.5 g/ha [11]: 0%; pest or weed control at 250 g/ha [11]: 0%; pest or weed control at 15.625 g/ha [12]: 0%; pest or weed control at 62.5 g/ha [12]: 0%; pest or weed control at 250 g/ha [12]: 0%
CN1C[C@H](c2ccc(C(F)(F)F)cc2)[C@@H](C(=O)Nc2nccc(C(F)(F)F)c2F)C1=O (racemic) [Compound 1436]	0%	0%	0%	0%	0%	0%	0%	0%	0%	0%	0%	0%	0%	0%	0%	0%	0%	0%	0%	0%	plant injury at 250 g/ha (corn (Zea mays) [7]): 0%; pest or weed control at 15.625 g/ha [8]: 0%; pest or weed control at 62.5 g/ha [8]: 0%; pest or weed control at 250 g/ha [8]: 0%; pest or weed control at 15.625 g/ha [9]: 0%; pest or weed control at 62.5 g/ha [9]: 0%; pest or weed control at 250 g/ha [9]: 0%; pest or weed control at 15.625 g/ha [10]: 0%; pest or weed control at 62.5 g/ha [10]: 0%; pest or weed control at 250 g/ha [10]: 0%; pest or weed control at 15.625 g/ha [11]: 0%; pest or weed control at 62.5 g/ha [11]: 0%; pest or weed control at 250 g/ha [11]: 0%; pest or weed control at 15.625 g/ha [12]: 0%; pest or weed control at 62.5 g/ha [12]: 0%; pest or weed control at 250 g/ha [12]: 0%
